From patent publication US20250099475A1, “METHODS OF TREATING HYPERTENSION BY PERIODIC SUPPRESSION OF ALDOSTERONE SYNTHASE” (Mineralys Therapeutics, Inc., priority 2022, published 2025)
Entries after “also recorded” stand apart in the source; their conditions may differ. Marks after values point to notes of the source that are not given here.

Assays:
cardiovascular system = assay: Cardiovascular system in halothane-anesthetized dogs; format: in vivo, dog; settings: intravenous infusion up to 3-mg/kg as free base; non-GLP
Method: Effects of Compound A on the cardiovascular system were evaluated with halothane-anesthetized dogs. Doses of 0, 0.3, 1, and 3 mg/kg of Compound A as free base were infused intravenously in ascending order to the same 3 male dogs at 0.1 mL/kg/min for 10 minutes cumulatively with 30 minutes interval between the start of infusion. Heart rate, systolic, diastolic, and mean blood pressure, cardiac output, total peripheral resistance, left ventricular end-diastolic pressure, maximum upstroke velocity of the left ventricular pressure, and electrocardiogram parameters (PR interval, QRS duration, QT interval, and QTcV) were evaluated.

cynomolgus monkeys = assay: 13-week repeat-dose oral toxicology study in monkeys; format: in vivo, cynomolgus monkey
Method: The toxicologic profile of Compound A was assessed in several toxicology studies, including 13-week repeat-dose oral studies in Sprague Dawley rats and cynomolgus monkeys, a standard battery of genotoxicity studies, preliminary embryo-fetal development studies in rats and rabbits, and in vitro and in vivo phototoxicity studies. Rats and monkeys were selected for the general toxicology studies on the basis of pharmacology and metabolism data that indicated these animals would have metabolism similar to that of humans. Studies were performed in accordance with GLP regulations.
Doses in the 13-week toxicology studies were 0, 50, 150, 450 (female), and 600 (male) mg/kg/d in Sprague Dawley rats. In cynomolgus monkeys (females and males), the doses were 0, 10, 30, and 100 mg/kg/d. Hematoxylin-and-eosin-stained sections (nominal thickness of approximately 5 μm) were prepared from the formalin-fixed paraffin-embedded organs/tissues of all animals in the toxicology studies.

[1] = system: plasma cortisol concentrations (PCCs); assay: ACTH-treated cynomolgus monkey model; format: in vivo
Method: An adrenocorticotropic hormone (ACTH)-treated cynomolgus monkey model was performed to evaluate the effect of Compound A on plasma cortisol concentrations (PCCs). A dose of Compound A, as free base, that was 100-fold higher than required to reduce PACs (0.3 mg/kg by mouth) was administered, followed immediately by ACTH (50 μg/kg subcutaneously). PACs were also evaluated in the animals. PACs and PCCs were determined by radioimmunoassay and measured during the 24 hours after Compound A administration.

[2] = system: 46 targets in receptor binding and enzyme inhibition studies; assay: Pan-receptor screening
From the text: Compound A, at a concentration of 10 μmol/L, was screened against 46 targets in receptor binding and enzyme inhibition studies to determine if Compound A interacted with any off-target enzymes or receptors.

hypertensive subjects = assay: Example 4 dose-ranging study: 24-hour ambulatory blood pressure monitoring (ABPM); format: in vivo, human; settings: for Change in ABPM (24 h) BPdias, Mean (sem) / Change in ABPM (24 h) BPmcan, Mean (sem) / Change in ABPM (24 h) BPsys, Mean (sem) / Change in ABPM (night) BPsys, Mean (sem) / Subjects with nighttime Dip 10-20% / Subjects with nighttime Dip <10% / Subjects with nighttime Dip >20%: Week 8, Full Analysis Set
[3] = Example 4 dose-ranging study: safety (adverse events, serum potassium, eGFR); format: in vivo, human
Method: Subjects orally administered the assigned study drug (Compound A HBr or placebo) according to the assigned dosing regimen for 8 weeks beginning on Study Day 1. All subjects in Part 1 (regardless of dosing group) received BID dosing to preserve the integrity of the blind; active drug is administered as the morning dose for all QD dose groups. Subjects returned to the research facility or were seen by the clinical investigator or approved home health care professional at the end of Study Weeks 1, 2, 3, 4, 5, 6, 7, and 8 (±2 days) for protocol-defined efficacy and safety assessments and procedures, assessment of adverse events (AEs), and confirmation of compliance with study drug usage. Subjects also completed a telephone visit and blood pressure (BP) check at home approximately 3 days post last dose of study drug. Subjects attended up to 14 full clinic visits, including a pre-Screening visit, a Screening/start of Placebo Run-in visit, a second visit during Placebo Run-in, a clinic visit to initiate the ABPM procedure, a Randomization visit, 8 weekly visits during double-blind treatment, and an end-of-study visit scheduled 4 weeks after the last study treatment for final efficacy and safety assessments.

[4] = pooled (Part 1 and Part 2) 100 mg QD safety set (n=60)

## CC(=O)N[C@H]1CC[C@H](NC(=O)CN2CCN(c3nncc(-c4ccc(C)cc4)n3)CC2)CC1 [Compound A]
Cardiovascular system
  effects on the cardiovascular system: no effects
Cynomolgus monkeys; doses up to 100 mg/kg/d
  effects on electrocardiogram values: no Compound A-related effects
Cynomolgus monkeys; monkeys
  effect on cortisol: no effects on cortisol
Cynomolgus monkeys; monkeys, all dose levels (10, 30, 100 mg/kg/d)
  adrenal findings: Hypertrophy of zona glomerulosa cells in the adrenal cortices and decreased PACs
[1]; monkey models, dose ratio
  selectivity for CYP11B2 over CYP11B1 in vivo: 100 fold
[1]; single oral dose 100 times greater than the dose that inhibited PAC production, ACTH-loaded monkeys
  effect on PCCs: did not affect PCCs; also recorded: PCCs were not affected
[2]; 10 μmol/L
  inhibition of 46 primary molecular target receptors or enzymes: did not substantially inhibit
[2]; any of 46 targets, read-out: IC50 for off-target receptors or enzymes
  IC50: > 10 µM

## CC(=O)N[C@H]1CC[C@H](NC(=O)CN2CCN(c3nncc(-c4ccc(C)cc4)n3)CC2)CC1 [Compound A HBr]
Hypertensive subjects; 100 mg QD cohort
  overnight reduction of systolic BP (24 h ambulatory): −11.5+/−2.9 mmHg
Hypertensive subjects; 12.5 mg BID
  Change in ABPM (24 h) BPdias, Mean (sem): −5.4 (2.2) mmHg
  Change in ABPM (24 h) BPmcan, Mean (sem): −5.5 (2.7) mmHg
  Change in ABPM (24 h) BPsys, Mean (sem): −5.7 (3.2) mmHg
  Change in ABPM (night) BPsys, Mean (sem): −7.5 (4.0) mmHg
  Subjects with nighttime Dip 10-20%: 31%
  Subjects with nighttime Dip <10%: 69%
  Subjects with nighttime Dip >20%: 0%
Hypertensive subjects; 12.5 mg QD
  Change in ABPM (24 h) BPdias, Mean (sem): −2.3 (1.7) mmHg
  Change in ABPM (24 h) BPmcan, Mean (sem): −3.7 (2.6) mmHg
  Change in ABPM (24 h) BPsys, Mean (sem): −5.2 (3.4) mmHg
  Change in ABPM (night) BPsys, Mean (sem): −5.4 (4.2) mmHg
  Subjects with nighttime Dip 10-20%: 36%
  Subjects with nighttime Dip <10%: 64%
  Subjects with nighttime Dip >20%: 0%
Hypertensive subjects; 25 mg BID
  Change in ABPM (24 h) BPdias, Mean (sem): −6.1 (1.8) mmHg
  Change in ABPM (24 h) BPmcan, Mean (sem): −7.4 (2.3) mmHg
  Change in ABPM (24 h) BPsys, Mean (sem): −8.7 (2.9) mmHg
  Change in ABPM (night) BPsys, Mean (sem): −6.0 (2.8) mmHg
  Subjects with nighttime Dip 10-20%: 17%
  Subjects with nighttime Dip <10%: 79%
  Subjects with nighttime Dip >20%: 4%
Hypertensive subjects; 50 mg QD
  Change in ABPM (24 h) BPdias, Mean (sem): −3.0 (1.6) mmHg
  Change in ABPM (24 h) BPmcan, Mean (sem): −2.4 (2.2) mmHg
  Change in ABPM (24 h) BPsys, Mean (sem): −1.8 (3.0) mmHg
  Change in ABPM (night) BPsys, Mean (sem): 2.4 (4.2) mmHg
  Subjects with nighttime Dip 10-20%: 21%
  Subjects with nighttime Dip <10%: 78%
  Subjects with nighttime Dip >20%: 0%
Hypertensive subjects; 100 mg QD
  Change in ABPM (24 h) BPdias, Mean (sem): −5.9 (1.5) mmHg
  Change in ABPM (24 h) BPmcan, Mean (sem): −7.4 (1.8) mmHg
  Change in ABPM (24 h) BPsys, Mean (sem): −8.9 (2.2) mmHg
  Change in ABPM (night) BPsys, Mean (sem): −11.5 (2.5) mmHg
  Subjects with nighttime Dip 10-20%: 46%
  Subjects with nighttime Dip <10%: 46%
  Subjects with nighttime Dip >20%: 8%
[3]; 100 mg QD Pooled, N 60
  Study drug discontinuation: Hyperkalemia, subjects (%): 2 (3.3%)
  Study drug discontinuation: Hyponatremia, subjects (%): 1 (1.7%)
  Study drug discontinuation: Hypotension, subjects (%): 2 (3.3%)
  Study drug discontinuation: Other possibly related, subjects (%): 1 (1.7%)
  Study drug discontinuation: Other unrelated, subjects (%): 4 (6.7%)
[3]; 100 mg QD, Part 1
  Individuals with verified or multiple increased Serum K+ 5.2-5.5 mMol/L, number (%): 5 (18.5%)
  Individuals with verified or multiple increased Serum K+ 5.6-6.0 mMol/L, number (%): 3 (10.7%)
  Individuals with verified or multiple increased Serum K+ 6.1-6.5 mMol/L, number (%): 0
[3]; 100 mg QD, Part 1, isolated incident not verified by repeat measurement
  Individuals with increased Serum K+ >6.5 mMol/L, number: 1*
[3]; 100 mg QD, Part 2
  Individuals with verified or multiple increased Serum K+ 5.2-5.5 mMol/L, number (%): 1 (4%)
  Individuals with verified or multiple increased Serum K+ 5.6-6.0 mMol/L, number (%): 0
  Individuals with verified or multiple increased Serum K+ 6.1-6.5 mMol/L, number (%): 0
  Individuals with verified or multiple increased Serum K+ >6.5 mMol/L, number: 0
[3]; 100 mg QD, Pooled
  Individuals with verified or multiple increased Serum K+ 5.2-5.5 mMol/L, number (%): 6 (10.3%)
  Individuals with verified or multiple increased Serum K+ 5.6-6.0 mMol/L, number (%): 3 (5.2%)
  Individuals with verified or multiple increased Serum K+ 6.1-6.5 mMol/L, number (%): 0
  Individuals with verified or multiple increased Serum K+ >6.5 mMol/L, number: 0
[3]; Part 1 100 mg QD, N 29
  Study drug discontinuation: Hyperkalemia, subjects (%): 2 (6.9%)
  Study drug discontinuation: Hyponatremia, subjects (%): 0
  Study drug discontinuation: Hypotension, subjects (%): 1 (3.4%)
  Study drug discontinuation: Other possibly related, subjects (%): 1 (3.4%)
  Study drug discontinuation: Other unrelated, subjects (%): 3 (6.0%)
[3]; Part 1, N 26 (dose not given)
  Change in group mean serum potassium (K+), Mean: +0.50 mMol/L
[3]; Part 1 All active, N 159
  Study drug discontinuation: Hyperkalemia, subjects (%): 6 (3.8%)
  Study drug discontinuation: Hyponatremia, subjects (%): 0
  Study drug discontinuation: Hypotension, subjects (%): 2 (1.2%)
  Study drug discontinuation: Other possibly related, subjects (%): 1 (0.6%)
  Study drug discontinuation: Other unrelated, subjects (%): 11 (6.9%)
[3]; Part 2 100 mg QD, N 31
  Study drug discontinuation: Hyperkalemia, subjects (%): 0
  Study drug discontinuation: Hyponatremia, subjects (%): 1 (3.4%)
  Study drug discontinuation: Hypotension, subjects (%): 1 (2.8%)
  Study drug discontinuation: Other possibly related, subjects (%): 0
  Study drug discontinuation: Other unrelated, subjects (%): 1 (2.8%)
[3]; Part 2, N 31 (dose not given)
  Change in group mean serum potassium (K+), Mean: +0.23 mMol/L
[3]; Pooled, N 57 (dose not given)
  Change in group mean serum potassium (K+), Mean: +0.35 mMol/L
[3]; Total active, N 190
  Study drug discontinuation: Hyperkalemia, subjects (%): 6 (3.2%)
  Study drug discontinuation: Hyponatremia, subjects (%): 1 (0.5%)
  Study drug discontinuation: Hypotension, subjects (%): 3 (1.6%)
  Study drug discontinuation: Other possibly related, subjects (%): 1 (0.5%)
  Study drug discontinuation: Other unrelated, subjects (%): 12 (6.3%)
[3]; dosing cohorts
  change in eGFR: dose-dependent and reversible reduction in eGFR
[3]; [4]
  effects on serum cortisol: no effects on serum cortisol
  episodes of hyperkalemia: few episodes of mild or moderate hyperkalemia and no episodes of severe hyperkalemia
[3]; whole trial
  serious adverse events (SAEs) related to the study medication: No serious adverse events (SAEs) related to the study medication
